Data from paper PMC5342526, “Identification of Bisindolylmaleimide IX as a potential agent to treat drug-resistant BCR-ABL positive leukemia” (Oncotarget, 2016).

What was measured:
[1] = system: BCR-ABL in BaF3 cells; test: BCR-ABL activation in cells, anti-phospho-Tyr western blot; details: 4 hrs
Experimental: BaF3 cells infected with empty retrovirus or retrovirus expressing BCR-ABL were treated with different doses of Bisindolylmaleimide IX for 4 hrs. Activation and expression of BCR-ABL were determined by western blot. Activation of BCR-ABL was determined by anti-phospho-Tyr antibodies.
Cells were lysed in TNEN buffer (50 mM Tris, 150 mM NaCl, 5 mM EDTA, 0.5% NP-40, and 0.1% Triton X-100) supplemented with 1 mM NaF, Na2VO3, 1 mM PMSF, and 1 μg/ml of aprotonin, leupeptin, and pepstatin A. Protein concentrations were determined using a Bio-Rad assay. Proteins were resolved by SDS-PAGE and transferred to polyvinylidene difluoride membranes (Millipore). […] Antibodies against p-Tyr were from Merck Millipore Corporation.

[2] = system: B-Raf in BCR-ABL positive BaF3 cells; test: B-Raf phosphorylation, western blot; format: cell-based, murine
Experimental: (§1) Activation and expression of Erk, Mek1, and Raf were determined by western blot. B. Inhibition of Erk decreased the cell survival rates in BaF3 cells expressing BCR-ABL compared to control cells. […] C. […] N=3. Right panel: Western blot results showing that B-Raf was knocked down in these cells.

[3] = system: HCT116 cells; test: Cell cycle analysis by FACS; format: cell-based, human; details: HCT116, 24 hrs
Experimental: Cells were seeded on 35-mm dishes and cultured for 24 hrs, reaching 60–70% confluency. The cells were treated with different concentrations of Bisindolylmaleimide IX for 24 or 48 hrs, harvested by trypsinization, resuspended in 200 μl PBS, and fixed in 100% ethanol overnight at 4°C. The fixed cells were pelleted by centrifugation, resuspended in 800 μl PBS containing ribonuclease A (100 μg/ml) and incubated for 30 min at 37°C. Then 10 μl propidium iodide (PI, 4 mg/ml PBS) were added to the samples, which were assessed on a FACSCalibur flow cytometer using Cell Quest software (BD Bioscience).

[4] = molecular target: BCR-ABL (Homo sapiens, UniProt P00519); test: Z'-LYTE in vitro kinase assay; format: biochemical
Chain of BCR-ABL (P00519 27-1130): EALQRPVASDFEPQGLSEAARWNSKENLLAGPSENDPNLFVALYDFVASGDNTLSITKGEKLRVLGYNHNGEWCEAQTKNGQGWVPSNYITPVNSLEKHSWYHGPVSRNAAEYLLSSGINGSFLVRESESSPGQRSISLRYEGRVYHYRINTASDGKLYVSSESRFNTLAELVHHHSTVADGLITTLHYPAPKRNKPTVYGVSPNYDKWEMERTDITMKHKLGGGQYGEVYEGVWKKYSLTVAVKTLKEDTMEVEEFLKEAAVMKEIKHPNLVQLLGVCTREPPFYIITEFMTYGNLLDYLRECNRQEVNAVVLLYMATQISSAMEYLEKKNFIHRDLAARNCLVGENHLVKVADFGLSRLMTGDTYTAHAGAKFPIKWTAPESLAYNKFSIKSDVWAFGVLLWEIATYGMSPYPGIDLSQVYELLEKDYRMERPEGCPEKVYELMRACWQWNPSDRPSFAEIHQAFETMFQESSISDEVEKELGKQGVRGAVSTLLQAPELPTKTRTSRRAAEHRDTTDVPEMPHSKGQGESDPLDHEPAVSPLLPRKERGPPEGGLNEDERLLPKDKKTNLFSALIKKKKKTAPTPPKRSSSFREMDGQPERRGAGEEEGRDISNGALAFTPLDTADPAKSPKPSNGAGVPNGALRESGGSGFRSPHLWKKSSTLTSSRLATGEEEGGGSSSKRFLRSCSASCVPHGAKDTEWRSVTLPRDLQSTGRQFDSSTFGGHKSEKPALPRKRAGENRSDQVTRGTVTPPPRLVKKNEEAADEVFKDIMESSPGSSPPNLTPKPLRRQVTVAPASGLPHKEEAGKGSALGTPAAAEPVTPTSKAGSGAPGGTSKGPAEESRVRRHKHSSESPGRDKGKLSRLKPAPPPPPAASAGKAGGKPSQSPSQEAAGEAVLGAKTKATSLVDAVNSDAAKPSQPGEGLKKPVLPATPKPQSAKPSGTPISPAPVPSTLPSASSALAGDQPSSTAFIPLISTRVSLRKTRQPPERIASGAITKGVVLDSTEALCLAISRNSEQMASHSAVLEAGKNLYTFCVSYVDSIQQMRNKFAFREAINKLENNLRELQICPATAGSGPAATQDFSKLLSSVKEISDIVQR
Chain of BCR-ABL (P11274 1-927 partner): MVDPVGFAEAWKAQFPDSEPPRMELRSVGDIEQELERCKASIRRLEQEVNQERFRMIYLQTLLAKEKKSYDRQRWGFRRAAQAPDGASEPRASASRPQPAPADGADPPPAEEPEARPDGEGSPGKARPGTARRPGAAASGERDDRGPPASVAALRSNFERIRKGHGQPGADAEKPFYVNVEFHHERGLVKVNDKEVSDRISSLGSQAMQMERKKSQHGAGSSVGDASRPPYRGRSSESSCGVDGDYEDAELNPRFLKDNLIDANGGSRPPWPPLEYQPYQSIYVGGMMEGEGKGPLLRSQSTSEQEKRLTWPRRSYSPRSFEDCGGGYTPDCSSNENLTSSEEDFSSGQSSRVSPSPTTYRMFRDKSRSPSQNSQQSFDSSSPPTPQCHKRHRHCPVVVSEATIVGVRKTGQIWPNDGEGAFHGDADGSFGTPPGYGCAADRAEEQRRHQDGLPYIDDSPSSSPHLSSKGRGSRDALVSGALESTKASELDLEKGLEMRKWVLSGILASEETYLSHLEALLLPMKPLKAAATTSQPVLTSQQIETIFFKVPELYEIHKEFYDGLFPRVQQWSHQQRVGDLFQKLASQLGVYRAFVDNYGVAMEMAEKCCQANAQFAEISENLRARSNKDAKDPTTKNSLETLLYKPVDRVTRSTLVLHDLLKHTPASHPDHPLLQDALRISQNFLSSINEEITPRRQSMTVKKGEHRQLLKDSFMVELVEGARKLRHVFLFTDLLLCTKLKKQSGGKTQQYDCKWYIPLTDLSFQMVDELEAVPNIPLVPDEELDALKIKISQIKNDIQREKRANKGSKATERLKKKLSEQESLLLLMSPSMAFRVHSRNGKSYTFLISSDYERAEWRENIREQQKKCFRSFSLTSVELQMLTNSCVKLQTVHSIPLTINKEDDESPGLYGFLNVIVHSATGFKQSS
Experimental: (§2) The recombinant Auror, B-Raf, IKKβ, SYK, BCR-Abl, MEK1 and Erk1 proteins were expressed in Escherichia coli strain BL21-Codon Plus (DE3), purified by Ni-NTA Agarose (QIAGEN). The kinase assays were carried out with the Z'-LYTETM Kinase Assay kit using Ser/Thr3 Peptide substrate (Invitrogen). The reactions were carried out according to the Z-LYTE protocol and the results were read on an EnVision plate reader. All reactions were carried out in triplicate. Data were expressed as mean ±SEM.

[5] = molecular target: T1, SYK (Homo sapiens, UniProt P43405); test: Z'-LYTE in vitro kinase assay; format: biochemical
T1 construct: made in house; host or cells: Escherichia coli BL21-Codon Plus (DE3)
Experimental: as §2

[6] = molecular target: T2, MEK1 (Homo sapiens, UniProt Q02750); test: Z'-LYTE in vitro kinase assay; format: biochemical
T2 construct: made in house; host or cells: Escherichia coli BL21-Codon Plus (DE3)
T2 sequence (Q02750 whole entry, species assumed): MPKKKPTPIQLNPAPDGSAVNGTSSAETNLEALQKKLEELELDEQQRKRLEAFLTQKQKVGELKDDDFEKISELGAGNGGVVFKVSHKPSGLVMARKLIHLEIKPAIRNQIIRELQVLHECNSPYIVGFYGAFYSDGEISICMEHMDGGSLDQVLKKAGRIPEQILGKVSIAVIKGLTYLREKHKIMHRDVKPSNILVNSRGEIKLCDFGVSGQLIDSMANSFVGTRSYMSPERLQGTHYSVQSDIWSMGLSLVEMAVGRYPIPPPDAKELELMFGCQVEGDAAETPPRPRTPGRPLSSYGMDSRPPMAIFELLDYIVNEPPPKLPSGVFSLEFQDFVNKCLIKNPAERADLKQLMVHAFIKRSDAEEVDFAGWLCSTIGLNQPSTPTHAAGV
Experimental: as §2

[7] = molecular target: T3, IKKβ (Homo sapiens, UniProt O14920); test: Z'-LYTE in vitro kinase assay; format: biochemical; details: mean ±SEM
T3 construct: made in house; host or cells: Escherichia coli BL21-Codon Plus (DE3)
T3 sequence (O14920 whole entry, species assumed): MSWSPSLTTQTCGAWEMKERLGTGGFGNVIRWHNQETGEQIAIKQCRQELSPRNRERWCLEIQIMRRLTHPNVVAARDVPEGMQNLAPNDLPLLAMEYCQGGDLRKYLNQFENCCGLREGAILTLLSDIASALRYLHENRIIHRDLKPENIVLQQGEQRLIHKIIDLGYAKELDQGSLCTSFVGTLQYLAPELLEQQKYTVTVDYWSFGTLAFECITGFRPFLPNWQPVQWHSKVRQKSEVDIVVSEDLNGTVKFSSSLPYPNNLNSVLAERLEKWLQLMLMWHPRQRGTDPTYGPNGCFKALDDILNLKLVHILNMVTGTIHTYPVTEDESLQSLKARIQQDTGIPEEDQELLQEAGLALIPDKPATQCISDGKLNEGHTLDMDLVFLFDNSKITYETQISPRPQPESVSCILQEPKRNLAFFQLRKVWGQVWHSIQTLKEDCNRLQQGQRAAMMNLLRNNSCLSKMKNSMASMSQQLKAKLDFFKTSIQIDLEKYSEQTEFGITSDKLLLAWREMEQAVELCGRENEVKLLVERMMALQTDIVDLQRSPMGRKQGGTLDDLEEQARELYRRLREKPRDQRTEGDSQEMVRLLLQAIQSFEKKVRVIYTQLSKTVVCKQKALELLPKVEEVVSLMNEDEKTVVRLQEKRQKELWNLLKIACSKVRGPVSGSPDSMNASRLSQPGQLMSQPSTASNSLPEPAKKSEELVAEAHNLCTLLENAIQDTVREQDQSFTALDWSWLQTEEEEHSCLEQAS
Experimental: as §2

[8] = molecular target: T4, ERK1 (Homo sapiens, UniProt P27361); test: Z'-LYTE in vitro kinase assay; format: biochemical
T4 construct: made in house; host or cells: Escherichia coli BL21-Codon Plus (DE3)
T4 sequence (P27361 whole entry, species assumed): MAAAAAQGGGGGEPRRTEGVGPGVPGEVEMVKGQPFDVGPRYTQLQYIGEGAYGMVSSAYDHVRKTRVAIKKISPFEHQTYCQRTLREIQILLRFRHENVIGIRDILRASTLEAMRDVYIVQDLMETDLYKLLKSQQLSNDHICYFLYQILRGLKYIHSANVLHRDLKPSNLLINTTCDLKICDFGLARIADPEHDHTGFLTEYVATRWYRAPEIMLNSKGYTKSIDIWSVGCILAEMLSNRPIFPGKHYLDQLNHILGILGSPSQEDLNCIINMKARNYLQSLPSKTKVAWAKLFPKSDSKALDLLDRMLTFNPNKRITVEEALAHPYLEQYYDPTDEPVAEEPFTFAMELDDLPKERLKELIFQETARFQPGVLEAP
Experimental: as §2

[9] = molecular target: T5, B-Raf (Homo sapiens, UniProt P15056); test: Z'-LYTE in vitro kinase assay; format: biochemical; details: mean ±SEM
T5 construct: made in house; host or cells: Escherichia coli BL21-Codon Plus (DE3)
T5 sequence (P15056 whole entry, species assumed): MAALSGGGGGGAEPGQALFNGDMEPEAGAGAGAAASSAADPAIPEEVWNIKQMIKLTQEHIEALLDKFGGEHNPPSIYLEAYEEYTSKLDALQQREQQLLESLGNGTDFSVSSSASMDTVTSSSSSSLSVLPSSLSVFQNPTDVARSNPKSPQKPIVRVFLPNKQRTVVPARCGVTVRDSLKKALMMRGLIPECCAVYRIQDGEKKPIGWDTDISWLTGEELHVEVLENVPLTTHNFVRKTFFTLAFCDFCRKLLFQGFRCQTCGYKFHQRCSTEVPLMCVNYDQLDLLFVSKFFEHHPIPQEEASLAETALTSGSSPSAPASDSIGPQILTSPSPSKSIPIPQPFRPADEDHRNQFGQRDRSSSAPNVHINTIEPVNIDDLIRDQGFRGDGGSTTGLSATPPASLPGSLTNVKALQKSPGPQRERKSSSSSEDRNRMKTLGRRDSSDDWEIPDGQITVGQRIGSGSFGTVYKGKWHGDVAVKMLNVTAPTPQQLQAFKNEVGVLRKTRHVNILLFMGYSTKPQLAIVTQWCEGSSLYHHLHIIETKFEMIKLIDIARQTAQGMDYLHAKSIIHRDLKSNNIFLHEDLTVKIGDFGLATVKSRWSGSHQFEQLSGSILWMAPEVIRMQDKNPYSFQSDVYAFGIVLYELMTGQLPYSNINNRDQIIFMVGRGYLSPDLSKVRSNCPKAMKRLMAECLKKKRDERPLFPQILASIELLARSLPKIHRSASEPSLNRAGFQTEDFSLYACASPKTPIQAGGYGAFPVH
Experimental: as §2

[10] = molecular target: T6, Aurora A (Homo sapiens, UniProt O14965); test: Z'-LYTE in vitro kinase assay; format: biochemical; details: mean ±SEM
T6 construct: made in house; host or cells: Escherichia coli BL21-Codon Plus (DE3)
T6 sequence (O14965 whole entry): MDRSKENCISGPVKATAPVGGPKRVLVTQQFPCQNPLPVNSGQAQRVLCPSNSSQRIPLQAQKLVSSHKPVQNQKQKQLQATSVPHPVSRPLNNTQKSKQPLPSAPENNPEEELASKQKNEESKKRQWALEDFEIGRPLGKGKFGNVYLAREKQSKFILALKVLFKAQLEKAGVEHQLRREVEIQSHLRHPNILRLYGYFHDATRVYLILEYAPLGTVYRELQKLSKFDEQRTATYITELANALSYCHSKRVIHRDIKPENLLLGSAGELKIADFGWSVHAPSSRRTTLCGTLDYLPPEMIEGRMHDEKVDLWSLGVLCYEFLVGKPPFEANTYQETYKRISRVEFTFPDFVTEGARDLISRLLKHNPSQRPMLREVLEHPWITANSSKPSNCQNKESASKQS
Experimental: as §2

[11] = system: p53 in HCT116 cells; test: p53 protein level by western blot; format: cell-based, human; details: HCT116, 2.5 μM, time-dependent
[12] = system: Vector MEF cells; test: Wst-1 cell survival assay; details: Mus musculus, 24 h, read-out: IC50, cell survival
Experimental: We then evaluated the cytotoxic effect of Bisindolylmaleimide IX in MEFs and HCT116 cells. Different doses of Bisindolylmaleimide IX were applied to the cell cultures and cell survival rates and IC50 were determined with Wst-1 assay.
To measure cell survival rates after Bisindolylmaleimide IX treatment, cells were plated at 1×10^4 in 96 well plates and cultured for overnight, which were then treated with Bisindolylmaleimide IX for 48 hrs. Cell proliferation reagent WST-1 (Roche) was added to each well and was further incubated for 4 hrs at 37°C. The absorbance was measured against a control using microplate reader at 440 nm. The reference wavelength was 630 nm.

[13] = system: Vector BaF3 cells; test: Wst-1 cell survival assay; format: cell-based, murine; details: Mus musculus, Vector BaF3, 24 hrs
From the text: The reference wavelength was 630 nm.

[14] = system: DNA topoisomerase; test: in vitro DNA relaxation reaction with BaF3 cell lysates; format: biochemical, murine; details: 0, 2, 4 or 8 μM, pBluescript
Experimental: Figure 1 Identification of Bisindolylmaleimide IX as a genotoxic agent and a topoisomerase inhibitor A. The structures of Bisindolylmaleimide IX. B. Bisindolylmaleimide IX induced p53 expression in MEFs and HCT116 cells. Upper panel: primary MEFs were treated with 2.5 μM Bisindolylmaleimide IX for different periods of time and the cells were collected. The levels of p53 were determined by western blot. Bottom panel: HCT116 cells were treated with 2.5 μM Bisindolylmaleimide IX for different periods of time and the cells were collected. The levels of p53 were determined by western blot. C. Bisindolylmaleimide IX induced formation of DNA damage foci for γH2AX and p-Atm in MEFs. Primary MEFs were pretreated with caffeine or solvent for 2 hrs and then with 2.5 μM of Bisindolylmaleimide IX, Bisindolylmaleimide I, or Enzastaurin for 4 more hrs. γH2AX and p-Atm were detected with immunofluorescent staining using specific antibodies. D. Bisindolylmaleimide IX inhibited the topoisomerase activity assayed with pBluescript. DNA samples of pBluescript were incubated with cell lysates of MEFs, which were treated with 0, 4 or 8 μM Bisindolylmaleimide IX before being harvested. DNA samples were analyzed on agarose gels. […] DNA samples of pBluescript were incubated with cell lysates of BaF3 in the presence of 0, 2, 4 or 8 μM Bisindolylmaleimide IX. DNA samples were analyzed on agarose gels. […]

[15] = Precipitation in cell cultures; format: physicochemical
[16] = system: tumors derived from T315I BCR-ABL-expressing BaF3 cells; test: Subcutaneous solid tumor model in nude mice; format: in vivo, mouse; details: 4 mg/kg
Experimental: (§3) For solid tumor models, the mice were injected with 4 mg / kg of Bisindolylmaleimide IX or solvent. The length (L) and width (W) of the tumor were measured by a digital caliper and expressed as tumor volume (0.5 L×W^2, mm^3). The body weight and the lifespan of the mice with intravenous injection of BaF3 cells were monitored every day. For B-Raf knockdown, lentivirus-mediated expressing shRNA against B-Raf was used.

[17] = system: tumors derived from BCR-ABL-expressing BaF3 cells; test: Subcutaneous solid tumor model in nude mice; format: in vivo, mouse; details: 4 mg/kg
Experimental: as §3

[18] = system: intravenously injected BCR-ABL positive BaF3 cells; test: Lifespan of nude mice after intravenous cell injection; format: in vivo, mouse; details: 2 or 4 mg/kg every day
Experimental: as §3

[19] = system: intravenously injected T315I BCR-ABL positive BaF3 cells; test: as above; format: in vivo, mouse; details: 2 or 4 mg/kg every day
Experimental: as §3

[20] = system: Erk in BCR-ABL-expressing BaF3 cells; test: Erk activation, western blot; format: cell-based, murine; details: BCR-ABL-expressing BaF3 cells but not control cells, 4 hrs
Experimental: as §1

[21] = molecular target: Jak2 (Homo sapiens, UniProt O60674); test: Z'-LYTE in vitro kinase assay; format: biochemical; details: mean ±SEM

CS(=O)(=O)O.Cn1cc(C2=C(c3cn(CCCSC(=N)N)c4ccccc34)C(=O)NC2=O)c2ccccc21 [Bisindolylmaleimide IX, 3-[1-[3-(Amidinothio)propyl]-3-indolyl]-4-(1-methyl-3-indolyl)-1H-pyrrole-2,5-dione methanesulfonate]
inhibitory effect on BCR-ABL activity in vivo (in cells) [1]: negligible inhibitory effect | phosphorylation of B-Raf [2]: inhibited phosphorylation of B-Raf | cell cycle profile [3]: increase in G2/M phase cells and a decrease in S phase cells | concentration needed to inhibit BCR-ABL in in vitro kinase assays [4]: 45 µM | IC50 ([4]; in vitro kinase assay): > 45 µM | IC50 [5]: > 45 µM | IC50 [6]: > 45 µM | IC50 [7]: 0.48 ± 0.005 µM | IC50 [8]: > 45 µM | IC50 [9]: 1.14 ± 0.11 µM | IC50 [10]: > 45 µM | p53 expression [11]: induce p53 expression | IC50 [12]: 7.37 µM | IC50 [13]: > 8 µM | topoisomerase activity on addition to the in vitro DNA relaxation reaction [14]: inhibit the topoisomerase activity | concentrations at which the compound seemed to precipitate in cell cultures [15]: greater than 10 μM | growth of tumors [16]: significantly inhibited growth of tumors | growth of tumors [17]: significantly inhibited growth of the tumors | lifespan of the mice [18]: extend the lifespan | lifespan of the mice [19]: extend the lifespan | Erk activation [20]: inhibited Erk activation | IC50 [21]: 9.68 ± 0.79 µM
